# Reference: patent US12252524B2, “GIP/GLP1 co-agonist compounds” (Eli Lilly and Company, priority 2018, dated 2025)
# Numbered stars: 1 amine (or outer) side, 2 acyl side, 3 side chain; on linkers, the order of the positions; unused ones are H or OH. Square brackets hold non-standard residues; d marks the D form. Side chains are listed from the residue outwards. Peptide text beside a SMILES is read from it. * marks the point of attachment. C20 diacid = O=C(O)CCCCCCCCCCCCCCCCCCC(=O)*; γGlu = O=C(O)[C@H](CCC(=O)[*:2])N[*:1]; AEEA = NCCOCCOCC(=O)O; Aib = CC(C)(N)C(=O)O
# Legend:
# human Gcg receptor = target: T1, human Gcg receptor (Homo sapiens, UniProt P47871); assay: [125I]-Glucagon binding (SPA), human Gcg receptor; details: read-out: hGLcgR Ki, nM (SEM, n)
# T1 construct: expressed in transfected cells; crude membranes
# T1 sequence (P47871 26-477): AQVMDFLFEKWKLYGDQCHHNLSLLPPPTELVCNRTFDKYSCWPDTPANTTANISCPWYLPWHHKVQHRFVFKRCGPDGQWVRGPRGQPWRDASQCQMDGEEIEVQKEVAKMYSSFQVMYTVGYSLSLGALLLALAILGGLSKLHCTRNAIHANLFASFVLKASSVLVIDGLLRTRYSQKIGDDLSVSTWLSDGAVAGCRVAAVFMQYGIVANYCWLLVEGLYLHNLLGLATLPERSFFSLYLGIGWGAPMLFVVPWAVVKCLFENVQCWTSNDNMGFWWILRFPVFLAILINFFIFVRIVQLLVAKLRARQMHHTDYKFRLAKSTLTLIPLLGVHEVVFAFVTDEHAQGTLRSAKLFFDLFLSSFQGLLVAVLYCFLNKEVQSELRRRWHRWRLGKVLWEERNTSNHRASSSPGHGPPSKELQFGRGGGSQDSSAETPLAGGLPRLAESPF
# How it was run: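 Crude membranes from cells expressing the receptor, prepared by hypotonic lysis in 50 mM Tris HCl pH 7.5 with protease inhibitors, homogenization and differential centrifugation, were used in a WGA-bead SPA. Binding buffer: 25 mM HEPES pH 7.4, 2.5 mM CaCl2, 1 mM MgCl2, bacitracin, Tween-20.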
# human GIP receptor = target: T2, human GIP receptor (Homo sapiens, UniProt P48546); assay: [125I]-GIP binding (SPA), human GIP receptor; details: read-out: hGIPR Ki, nM (SEM, n)
# T2 construct: expressed in transfected cells; crude membranes
# T2 sequence (P48546 22-466): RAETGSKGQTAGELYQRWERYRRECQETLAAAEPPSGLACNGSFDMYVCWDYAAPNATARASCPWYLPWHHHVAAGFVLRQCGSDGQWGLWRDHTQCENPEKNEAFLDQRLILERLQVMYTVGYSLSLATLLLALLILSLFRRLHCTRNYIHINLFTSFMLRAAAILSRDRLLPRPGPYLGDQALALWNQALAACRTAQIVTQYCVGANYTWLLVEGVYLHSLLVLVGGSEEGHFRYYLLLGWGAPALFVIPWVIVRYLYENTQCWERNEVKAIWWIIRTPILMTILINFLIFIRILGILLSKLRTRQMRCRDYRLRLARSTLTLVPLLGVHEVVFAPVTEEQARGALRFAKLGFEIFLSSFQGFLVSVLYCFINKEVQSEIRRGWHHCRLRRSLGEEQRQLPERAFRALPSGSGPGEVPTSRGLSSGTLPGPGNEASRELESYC
# [1] = target: human GLP-1 receptor (GLP-1R) (Homo sapiens, UniProt P43220); assay: cAMP pharmacological functional assay in presence of casein, hGLP-1R; format: cell-based; details: HEK293 cells expressing hGLP-1R, 0.1% Casein, geometric mean; read-out: hGLP1R cAMP Rel EC50 nM (SEM, n)
# human GLP-1 receptor (GLP-1R), sequence (P43220 24-463): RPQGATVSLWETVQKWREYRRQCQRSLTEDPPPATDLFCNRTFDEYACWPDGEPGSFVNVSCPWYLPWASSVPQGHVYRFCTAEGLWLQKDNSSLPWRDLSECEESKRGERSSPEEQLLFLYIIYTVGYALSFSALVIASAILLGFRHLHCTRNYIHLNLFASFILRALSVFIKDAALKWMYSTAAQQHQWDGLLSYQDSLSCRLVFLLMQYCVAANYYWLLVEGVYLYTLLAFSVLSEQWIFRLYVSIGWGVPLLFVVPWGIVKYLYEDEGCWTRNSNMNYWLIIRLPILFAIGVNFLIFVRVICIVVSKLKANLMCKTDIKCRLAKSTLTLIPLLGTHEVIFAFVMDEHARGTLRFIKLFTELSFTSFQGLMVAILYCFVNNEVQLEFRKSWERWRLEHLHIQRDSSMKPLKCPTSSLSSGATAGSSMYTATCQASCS
# [2] = target: T3, gastric inhibitory peptide receptor (GIPR) (Homo sapiens, UniProt P48546); assay: cAMP pharmacological functional assay in presence of casein, hGIPR; format: cell-based; details: HEK293 cells expressing hGIPR, 0.1% Casein, geometric mean; read-out: hGIPR cAMP Rel EC50 nM (SEM, n)
# T3 sequence (P48546 22-466): T2 sequence (P48546 22-466)
# human GLP-1R = human GLP-1R (Homo sapiens, UniProt P43220); assay: [125I]-GLP-1 binding (SPA), human GLP-1 receptor; design: expressed in transfected cells; crude membranes; details: read-out: hGLP1R Ki, (nM) (SEM, n)
# human GLP-1R, sequence (P43220 24-463): as above
# How it was run: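 Assay buffer: HEPES 25 mM, pH 7.4, CaCl2 2.5 mM, MgCl2 1 mM, with EDTA-free protease inhibitors. Receptor came from crude cell membranes prepared by homogenization and centrifugation at 4° C. IC50s came from four-parameter fits (maximum, minimum, IC50, Hill slope) and were expressed as Ki geometric means with SEM.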
SMILES,Ki (human Gcg receptor),Ki (human GIP receptor),EC50 [1],EC50 [2],Ki (human GLP-1R)
CC[C@H](C)[C@H](NC(=O)[C@H](CC(C)C)NC(=O)[C@H](Cc1ccc(O)cc1)NC(=O)[C@H](CCC(=O)O)NC(=O)[C@@H](NC(=O)[C@H](Cc1ccccc1)NC(=O)[C@H](C)NC(=O)C(C)(C)NC(=O)[C@H](CCC(N)=O)NC(=O)[C@H](C)NC(=O)[C@H](CCCCNC(=O)COCCOCCNC(=O)COCCOCCNC(=O)CC[C@H](NC(=O)CCCCCCCCCCCCCCCCCCC(=O)O)C(=O)O)NC(=O)[C@H](CCCCN)NC(=O)[C@H](CC(=O)O)NC(=O)[C@H](CC(C)C)NC(=O)[C@H](CC(C)C)NC(=O)[C@@H](NC(=O)[C@H](CO)NC(=O)[C@H](Cc1ccc(O)cc1)NC(=O)[C@H](CC(=O)O)NC(=O)[C@H](CO)NC(=O)[C@@H](NC(=O)[C@H](Cc1ccccc1)NC(=O)[C@@H](NC(=O)CNC(=O)[C@H](CCC(=O)O)NC(=O)[C@H](C)NC(=O)[C@@H](Cc1ccc(O)cc1)NC(C)=O)[C@@H](C)O)[C@@H](C)O)[C@@H](C)CC)[C@@H](C)CC)C(=O)N[C@@H](CCC(=O)O)C(=O)NCC(=O)NCC(=O)N1CCC[C@H]1C(=O)N[C@@H](CO)C(=O)N[C@@H](CO)C(=O)NCC(=O)N[C@@H](C)C(=O)N1CCC[C@H]1C(=O)N1CCC[C@H]1C(=O)N1CCC[C@H]1C(=O)N[C@@H](CO)C(N)=O [Example 79],429 nM,0.0313 nM,2.02 nM,0.0732 nM,2.69 nM
CC[C@H](C)[C@H](NC(=O)[C@H](CC(C)C)NC(=O)[C@H](Cc1ccc(O)cc1)NC(=O)[C@H](CCC(=O)O)NC(=O)[C@@H](NC(=O)[C@H](Cc1ccccc1)NC(=O)[C@H](C)NC(=O)C(C)(C)NC(=O)[C@H](CCC(N)=O)NC(=O)[C@H](C)NC(=O)[C@H](CCCCNC(=O)COCCOCCNC(=O)COCCOCCNC(=O)CC[C@H](NC(=O)CCCCCCCCCCCCCCCCCCC(=O)O)C(=O)O)NC(=O)[C@H](CCCCN)NC(=O)[C@H](CC(=O)O)NC(=O)[C@H](CC(C)C)NC(=O)[C@H](CC(C)C)NC(=O)[C@@H](NC(=O)[C@@H](CO)NC(=O)[C@H](Cc1ccc(O)cc1)NC(=O)[C@H](CC(=O)O)NC(=O)[C@H](CO)NC(=O)[C@@H](NC(=O)[C@H](Cc1ccccc1)NC(=O)[C@@H](NC(=O)CNC(=O)[C@H](CCC(=O)O)NC(=O)C(C)(C)NC(=O)[C@@H](N)Cc1ccc(O)cc1)[C@@H](C)O)[C@@H](C)O)[C@@H](C)CC)[C@@H](C)CC)C(=O)N[C@@H](CCC(=O)O)C(=O)NCC(=O)NCC(=O)N1CCC[C@H]1C(=O)N[C@@H](CO)C(=O)N[C@@H](CO)C(=O)NCC(=O)N[C@@H](C)C(=O)N1CCC[C@H]1C(=O)N1CCC[C@H]1C(=O)N1CCC[C@H]1C(=O)N[C@@H](CO)C(N)=O [Example 81],344 nM,0.198 nM,1.29 nM,0.428 nM,2.88 nM
CC[C@@H](C)[C@@H](NC(=O)[C@H](CO)NC(=O)[C@H](Cc1ccc(O)cc1)NC(=O)[C@H](CC(=O)O)NC(=O)[C@H](CO)NC(=O)[C@@H](NC(=O)[C@H](Cc1ccccc1)NC(=O)[C@@H](NC(=O)CNC(=O)[C@H](CCC(=O)O)NC(=O)C(C)(C)NC(=O)[C@@H](N)Cc1ccc(O)cc1)[C@@H](C)O)[C@@H](C)O)C(=O)N[C@@H](CC(C)C)C(=O)N[C@@H](CC(C)C)C(=O)N[C@@H](CC(=O)O)C(=O)N[C@@H](CCCCN)C(=O)N[C@@H](CCCCNC(=O)COCCOCCNC(=O)COCCOCCNC(=O)CC[C@H](NC(=O)CCCCCCCCCCCCCCCCCCC(=O)O)C(=O)O)C(=O)N[C@@H](C)C(=O)N[C@@H](CCC(N)=O)C(=O)NC(C)(C)C(=O)N[C@@H](C)C(=O)N[C@@H](Cc1ccccc1)C(=O)N[C@H](C(=O)N[C@@H](CCC(=O)O)C(=O)N[C@@H](Cc1ccc(O)cc1)C(=O)N[C@@H](CC(C)C)C(=O)N[C@H](C(=O)N[C@@H](CCC(=O)O)C(=O)NCC(=O)NCC(=O)N1CCC[C@H]1C(=O)N[C@@H](CO)C(=O)N[C@@H](CO)C(=O)NCC(=O)N[C@@H](C)C(=O)N1CCC[C@H]1C(=O)N1CCC[C@H]1C(=O)N1CCC[C@H]1C(=O)N[C@@H](CO)C(N)=O)[C@@H](C)CC)[C@@H](C)CC [Example 82],> 1060 nM,14.9 nM,26.1 nM,24.3 nM,6.82 nM
CC[C@H](C)[C@H](NC(=O)[C@H](Cc1ccccc1)NC(=O)[C@H](C)NC(=O)C(C)(C)NC(=O)[C@H](CCC(N)=O)NC(=O)[C@H](C)NC(=O)[C@H](CCCCNC(=O)COCCOCCNC(=O)COCCOCCNC(=O)CC[C@H](NC(=O)CCCCCCCCCCCCCCCCCCC(=O)O)C(=O)O)NC(=O)[C@H](CCCCN)NC(=O)[C@H](CC(=O)O)NC(=O)[C@H](CC(C)C)NC(=O)[C@H](CC(C)C)NC(=O)[C@@H](NC(=O)[C@H](CO)NC(=O)[C@H](Cc1ccc(O)cc1)NC(=O)[C@H](CC(=O)O)NC(=O)[C@H](CO)NC(=O)[C@@H](NC(=O)[C@H](Cc1ccccc1)NC(=O)[C@@H](NC(=O)CNC(=O)[C@H](CCC(=O)O)NC(=O)C(C)(C)NC(=O)[C@@H](N)Cc1ccc(O)cc1)[C@@H](C)O)[C@@H](C)O)[C@@H](C)CC)C(=O)N[C@@H](CCC(=O)O)C(=O)N[C@@H](Cc1ccc(O)cc1)C(=O)N[C@@H](CC(C)C)C(=O)N[C@H](C(=O)N[C@H](CCC(=O)O)C(=O)NCC(=O)NCC(=O)N1CCC[C@H]1C(=O)N[C@@H](CO)C(=O)N[C@@H](CO)C(=O)NCC(=O)N[C@@H](C)C(=O)N1CCC[C@H]1C(=O)N1CCC[C@H]1C(=O)N1CCC[C@H]1C(=O)N[C@@H](CO)C(N)=O)[C@@H](C)CC [Example 83],320 nM,0.142 nM,0.387 nM,0.182 nM,7.1 nM
CC[C@H](C)[C@H](NC(=O)[C@H](CC(C)C)NC(=O)[C@H](Cc1ccc(O)cc1)NC(=O)[C@@H](CCC(=O)O)NC(=O)[C@@H](NC(=O)[C@H](Cc1ccccc1)NC(=O)[C@H](C)NC(=O)C(C)(C)NC(=O)[C@H](CCC(N)=O)NC(=O)[C@H](C)NC(=O)[C@H](CCCCNC(=O)COCCOCCNC(=O)COCCOCCNC(=O)CC[C@H](NC(=O)CCCCCCCCCCCCCCCCCCC(=O)O)C(=O)O)NC(=O)[C@H](CCCCN)NC(=O)[C@H](CC(=O)O)NC(=O)[C@H](CC(C)C)NC(=O)[C@H](CC(C)C)NC(=O)[C@@H](NC(=O)[C@H](CO)NC(=O)[C@H](Cc1ccc(O)cc1)NC(=O)[C@H](CC(=O)O)NC(=O)[C@H](CO)NC(=O)[C@@H](NC(=O)[C@H](Cc1ccccc1)NC(=O)[C@@H](NC(=O)CNC(=O)[C@H](CCC(=O)O)NC(=O)C(C)(C)NC(=O)[C@@H](N)Cc1ccc(O)cc1)[C@@H](C)O)[C@@H](C)O)[C@@H](C)CC)[C@@H](C)CC)C(=O)N[C@@H](CCC(=O)O)C(=O)NCC(=O)NCC(=O)N1CCC[C@H]1C(=O)N[C@@H](CO)C(=O)N[C@@H](CO)C(=O)NCC(=O)N[C@@H](C)C(=O)N1CCC[C@H]1C(=O)N1CCC[C@H]1C(=O)N1CCC[C@H]1C(=O)N[C@@H](CO)C(N)=O [Example 84],> 1100 nM,0.143 nM,0.374 nM,0.0915 nM,10.2 nM
CC[C@H](C)[C@H](NC(=O)[C@H](CC(C)C)NC(=O)[C@H](Cc1ccc(O)cc1)NC(=O)[C@H](CCC(=O)O)NC(=O)[C@@H](NC(=O)[C@H](Cc1ccccc1)NC(=O)[C@H](C)NC(=O)C(C)(C)NC(=O)[C@H](CCC(N)=O)NC(=O)[C@H](C)NC(=O)[C@H](CCCCNC(=O)COCCOCCNC(=O)COCCOCCNC(=O)CC[C@H](NC(=O)CCCCCCCCCCCCCCCCCCC(=O)O)C(=O)O)NC(=O)[C@H](CCCCN)NC(=O)[C@H](CC(=O)O)NC(=O)[C@H](CC(C)C)NC(=O)[C@H](CC(C)C)NC(=O)[C@@H](NC(=O)[C@H](CO)NC(=O)[C@H](C)NC(=O)[C@H](CC(=O)O)NC(=O)[C@H](CO)NC(=O)[C@@H](NC(=O)[C@H](Cc1ccccc1)NC(=O)[C@@H](NC(=O)CNC(=O)[C@H](CCC(=O)O)NC(=O)C(C)(C)NC(=O)[C@@H](N)Cc1ccc(O)cc1)[C@@H](C)O)[C@@H](C)O)[C@@H](C)CC)[C@@H](C)CC)C(=O)N[C@@H](CCC(=O)O)C(=O)NCC(=O)NCC(=O)N1CCC[C@H]1C(=O)N[C@@H](CO)C(=O)N[C@@H](CO)C(=O)NCC(=O)N[C@@H](C)C(=O)N1CCC[C@H]1C(=O)N1CCC[C@H]1C(=O)N1CCC[C@H]1C(=O)N[C@@H](CO)C(N)=O [Example 85] (H-Y[Aib]EGTFTSDASILLDKK([AEEA-AEEA-γGlu-C20 diacid])AQ[Aib]AFIEYLIEGGPSSGAPPPS-NH2),> 894 nM,0.621 nM,0.0518 nM,1.67 nM,1.87 nM
